Measured values published in patent US9447038B2 (SANOFI, priority 2012, dated 2016).
Counter-ions that a name gives are not always drawn.

The compounds below were run against human CXCR3-A receptor (Homo sapiens (Human), UniProt P49682) (assay: 125I-CXCL10 competition radioligand binding assay). Conditions: displacement of 125I-CXCL10 from membranes of CHO cells expressing human recombinant CXCR3-A.
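Note: One-hour incubation of membranes with tracer, bound radioligand separated by glass fibre filtration, IC50 derived from four-parameter nonlinear fit of competition curves.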

human CXCR3-A receptor, sequence (P49682 whole entry): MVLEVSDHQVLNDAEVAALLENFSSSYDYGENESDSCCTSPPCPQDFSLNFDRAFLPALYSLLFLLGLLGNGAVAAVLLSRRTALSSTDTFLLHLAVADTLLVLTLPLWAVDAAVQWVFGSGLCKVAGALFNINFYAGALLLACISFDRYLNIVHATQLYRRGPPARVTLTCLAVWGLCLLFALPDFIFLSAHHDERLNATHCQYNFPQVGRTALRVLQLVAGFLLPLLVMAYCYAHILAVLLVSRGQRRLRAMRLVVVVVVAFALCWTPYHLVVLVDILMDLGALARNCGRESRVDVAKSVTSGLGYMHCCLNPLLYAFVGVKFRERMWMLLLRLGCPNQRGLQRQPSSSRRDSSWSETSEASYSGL

| SMILES | IC50 [nM] |
| --- | --- |
| CCc1cc(CN(CC2CCCC2)C(CC(=O)O)c2ccc(Cl)c(Cl)c2)ccc1OCCN1C(=O)CCC1=O (stereo not shown) [Example 100, 3-(Cyclopentylmethyl-{4-[2-(2,5-dioxo-pyrrolidin-1-yl)-ethoxy]-3-ethyl-benzyl}-amino)-3-(3,4-dichloro-phenyl)-propionic acid] | 464 |
| Cc1cc(CN(CC(C)C)C(CC(=O)O)c2ccc3c(c2)CCO3)ccc1OCCn1c(=O)ccn(C)c1=O (stereo not shown) [Example 158, 3-(2,3-Dihydro-benzofuran-5-yl)-3-(isobutyl-{3-methyl-4-[2-(3-methyl-2,6-dioxo-3,6-dihydro-2H-pyrimidin-1-yl)-ethoxy]-benzyl}-amino)-propionic acid] | 75 |
| CCCN(Cc1ccc(OCCn2c(=O)ccn(C)c2=O)c(OC)c1)C(CC(=O)O)c1ccc(Cl)c(Cl)c1 (stereo not shown) [Example 125, 3-(3,4-Dichloro-phenyl)-3-({3-methoxy-4-[2-(3-methyl-2,6-dioxo-3,6-dihydro-2H-pyrimidin-1-yl)-ethoxy]-benzyl}-propyl-amino)-propionic acid] | 72 |
| COc1cc(CN(CC(C)C)C(CC(=O)O)c2ccc3c(c2)CCO3)ccc1CCCN1C(=O)CCC1=O (stereo not shown) [Example 141, 3-(2,3-Dihydro-benzofuran-5-yl)-3-({4-[3-(2,5-dioxo-pyrrolidin-1-yl)-propyl]-3-methoxy-benzyl}-isobutyl-amino)-propionic acid] | 43 |
| CCCCN(Cc1ccc(OCCN2C(=O)CCC2=O)c(C)c1)C(CC(=O)O)c1ccc(Cl)cc1Cl (stereo not shown) [Example 164, 3-(Butyl-{4-[2-(2,5-dioxo-pyrrolidin-1-yl)-ethoxy]-3-methyl-benzyl}-amino)-3-(2,4-dichloro-phenyl)-propionic acid] | 133 |
| CCCCN(Cc1ccc(OCCN2C(=O)CCC2=O)c(C)c1)C(CC(=O)O)c1ccc2c(c1)CCO2 (stereo not shown) [Example 145, 3-(Butyl-{4-[2-(2,5-dioxo-pyrrolidin-1-yl)-ethoxy]-3-methyl-benzyl}-amino)-3-(2,3-dihydro-benzofuran-5-yl)-propionic acid] | 38 |
| CCCN(Cc1ccc(OCCN2C(=O)CCC2=O)c(F)c1)C(CC(=O)O)c1ccc(Cl)c(Cl)c1 (stereo not shown) [Example 62, 3-(3,4-Dichloro-phenyl)-3-({4-[2-(2,5-dioxo-pyrrolidin-1-yl)-ethoxy]-3-fluoro-benzyl}-propyl-amino)-propionic acid] | 503 |
| CCCN(Cc1ccc(OCCN2C(=O)CCC2=O)c(CC)c1)C(CC(=O)O)c1ccc(Cl)c(F)c1 (stereo not shown) [Example 91, 3-(4-Chloro-3-fluoro-phenyl)-3-({4-[2-(2,5-dioxo-pyrrolidin-1-yl)-ethoxy]-3-ethyl-benzyl}-propyl-amino)-propionic acid] | 56 |
| O=C(O)CC(c1ccc(Cl)cc1)N(Cc1ccc(OCCN2C(=O)CCC2=O)c(Cl)c1)CC1CC1 (stereo not shown) [Example 102, 3-({3-Chloro-4-[2-(2,5-dioxo-pyrrolidin-1-yl)-ethoxy]-benzyl}-cyclopropylmethyl-amino)-3-(4-chloro-phenyl)-propionic acid; hydrochloride] | 83 |
| Cc1cc(CN(CC2CCCC2)C(CC(=O)O)c2ccc3c(c2)CCO3)ccc1OCCn1c(=O)ccn(C)c1=O (stereo not shown) [Example 160, 3-(Cyclopentylmethyl-{3-methyl-4-[2-(3-methyl-2,6-dioxo-3,6-dihydro-2H-pyrimidin-1-yl)-ethoxy]-benzyl}-amino)-3-(2,3-dihydro-benzofuran-5-yl)-propionic acid] | 81 |
| COc1cc(CN(CC2CCCC2)C(CC(=O)O)c2ccc(Cl)c(Cl)c2)ccc1OCCN1C(=O)CCC1=O (stereo not shown) [Example 49, 3-(Cyclopentylmethyl-{4-[2-(2,5-dioxo-pyrrolidin-1-yl)-ethoxy]-3-methoxy-benzyl}-amino)-3-(3,4-dichloro-phenyl)-propionic acid] | 61 |
| CCCN(Cc1ccc(OCCN2C(=O)CCC2=O)c(C)c1)C(CC(=O)O)c1ccc(Cl)c(F)c1 (stereo not shown) [Example 75, 3-(4-Chloro-3-fluoro-phenyl)-3-({4-[2-(2,5-dioxo-pyrrolidin-1-yl)-ethoxy]-3-methyl-benzyl}-propyl-amino)-propionic acid] | 25 |
| Cc1cc(CN(CC2CCCCC2)C(CC(=O)O)c2ccc3c(c2)CCO3)ccc1OCCN1C(=O)CCC1=O (stereo not shown) [Example 149, 3-(Cyclohexylmethyl-{4-[2-(2,5-dioxo-pyrrolidin-1-yl)-ethoxy]-3-methyl-benzyl}-amino)-3-(2,3-dihydro-benzofuran-5-yl)-propionic acid] | 72 |
| Cc1cc(CN(C)C(c2ccc(Cl)cc2)C(C)C(=O)O)ccc1OCCN1C(=O)CCC1=O (stereo not shown) [Example 176] | 5520 |
| CCc1cc(CN(CC(C)C)C(CC(=O)O)c2ccc(Cl)c(Cl)c2)ccc1OCCN1C(=O)CCC1=O (stereo not shown) [Example 98, 3-(3,4-Dichloro-phenyl)-3-({4-[2-(2,5-dioxo-pyrrolidin-1-yl)-ethoxy]-3-ethyl-benzyl}-isobutyl-amino)-propionic acid] | 130 |
| CC(C)CN(Cc1ccc(OCCN2C(=O)CCC2=O)c(F)c1)[C@@H](CC(=O)O)c1ccc(Cl)c(F)c1 [Example 21, (S)-3-(4-Chloro-3-fluoro-phenyl)-3-({4-[2-(2,5-dioxo-pyrrolidin-1-yl)-ethoxy]-3-fluoro-benzyl}-isobutyl-amino)-propionic acid; hydrochloride] | 66 |
| COc1cc(CN(CC2CCCCC2)C(CC(=O)O)c2ccc(C(F)(F)F)cc2)ccc1OCCN1C(=O)CCC1=O (stereo not shown) [Example 181, 3-(Cyclohexylmethyl-{4-[2-(2,5-dioxo-pyrrolidin-1-yl)-ethoxy]-3-methoxy-benzyl}-amino)-3-(4-trifluoromethyl-phenyl)-propionic acid] | 507 |
| CCc1cc(CN(CC2CCCCC2)C(CC(=O)O)c2ccc(Cl)c(Cl)c2)ccc1OCCN1C(=O)CCC1=O (stereo not shown) [Example 101, 3-(Cyclohexylmethyl-{4-[2-(2,5-dioxo-pyrrolidin-1-yl)-ethoxy]-3-ethyl-benzyl}-amino)-3-(3,4-dichloro-phenyl)-propionic acid] | 292 |
| CCCCN(Cc1ccc(CCCN2C(=O)CCC2=O)c(C)c1)C(CC(=O)O)c1ccc2c(c1)CCO2 (stereo not shown) [Example 177, 3-(Butyl-{4-[3-(2,5-dioxo-pyrrolidin-1-yl)-propyl]-3-methyl-benzyl}-amino)-3-(2,3-dihydro-benzofuran-5-yl)-propionic acid] | 255 |
| COc1cc(CN(CC2CC2)C(CC(=O)O)c2ccc(Cl)c(Cl)c2)ccc1OCCn1c(=O)ccn(C)c1=O (stereo not shown) [Example 124, 3-(Cyclopropylmethyl-{3-methoxy-4-[2-(3-methyl-2,6-dioxo-3,6-dihydro-2H-pyrimidin-1-yl)-ethoxy]-benzyl}-amino)-3-(3,4-dichloro-phenyl)-propionic acid] | 30 |
| CCCCN(Cc1ccc(OCCN2C(=O)CCC2=O)c(CC)c1)C(CC(=O)O)c1ccc(Cl)c(F)c1 (stereo not shown) [Example 93, 3-(Butyl-{4-[2-(2,5-dioxo-pyrrolidin-1-yl)-ethoxy]-3-ethyl-benzyl}-amino)-3-(4-chloro-3-fluoro-phenyl)-propionic acid] | 79 |
| Cc1cc(CN(CC2CCCC2)[C@@H](CC(=O)O)c2ccc(Cl)cc2)ccc1OCCN1C(=O)CN(C)C1=O [Example 199, (S)-3-(4-Chloro-phenyl)-3-(cyclopentylmethyl-{3-methyl-4-[2-(3-methyl-2,5-dioxo-imidazolidin-1-yl)-ethoxy]-benzyl}-amino)-propionic acid] | 175 |
